The source of these data is EP1263458B1, “LOWERING SERUM CHOLESTEROL” (NOVO NORDISK A/S, priority 2000, dated 2005).

Each structure is given as a SMILES string.

The data set has as its system Wistar rats subjected to neonatal monosodium glutamate treatment (MSG). As to the kind of experiment: Acute and subchronic anorectic effects, plasma triglycerides, model of hypothalamic obesity (MSG rats). The class given is in vivo. As to conditions: 100 µg/kg s.c. twice daily, rat group not specified. How it is done:
Solutions were always made fresh approximately 1 hour prior to use and stored at 4°C in sterile tubes.

Where [1] appears, read: normalised within few days of treatment.

As to `CCCCCCCCCCCCCCCC(=O)N[C@@H](CCC(=O)NCCCC[C@H](NC(=O)[C@H](C)NC(=O)[C@H](C)NC(=O)[C@H](CCC(N)=O)NC(=O)CNC(=O)[C@H](CCC(=O)O)NC(=O)[C@H](CC(C)C)NC(=O)[C@H](Cc1ccc(O)cc1)NC(=O)[C@H](CO)NC(=O)[C@H](CO)NC(=O)[C@@H](NC(=O)[C@H](CC(=O)O)NC(=O)[C@H](CO)NC(=O)[C@@H](NC(=O)[C@H](Cc1ccccc1)NC(=O)[C@@H](NC(=O)CNC(=O)[C@H](CCC(=O)O)NC(=O)[C@H](C)NC(=O)[C@@H](N)Cc1cnc[nH]1)[C@@H](C)O)[C@@H](C)O)C(C)C)C(=O)N[C@@H](CCC(=O)O)C(=O)N[C@@H](Cc1ccccc1)C(=O)N[C@H](C(=O)N[C@@H](C)C(=O)N[C@@H](Cc1c[nH]c2ccccc12)C(=O)N[C@@H](CC(C)C)C(=O)N[C@H](C(=O)N[C@@H](CCCNC(=N)N)C(=O)NCC(=O)N[C@@H](CCCNC(=N)N)C(=O)NCC(=O)O)C(C)C)[C@@H](C)CC)C(=O)O` [GLP1, Arg^34, Lys^26(N^ε-(γ-Glu(N^α-hexadecanoyl)))-GLP-1(7-37)], under setting [1], the diuresis entry is reported as “increases” and the water intake result is given as “Initial decreases”. The “plasma parameters of renal function” value (throughout the experiment) is “remained normal”.
